Reference: PubChem BioAssay (NCI)
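1) Cells in 96-well plates. 2) Compound, 48 h, 5 concentrations. 3) Linear interpolation between surrounding doses. 4) Unreached endpoint = highest concentration. TGI: concentration producing complete growth inhibition.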

Key:
Assay in all cases: DTP human tumour cell line panel, 48 h
COLO 205 colon = tested on: COLO 205 colon
MALME-3M melanoma = tested on: MALME-3M melanoma
ACHN renal = tested on: ACHN renal
OVCAR-5 ovarian = tested on: OVCAR-5 ovarian
OVCAR-8 ovarian = tested on: OVCAR-8 ovarian
HT29 colon = tested on: HT29 colon
SF-295 CNS = tested on: SF-295 CNS
LOX IMVI melanoma = tested on: LOX IMVI melanoma
HCT-15 colon = tested on: HCT-15 colon
SK-MEL-28 melanoma = tested on: SK-MEL-28 melanoma
M14 melanoma = tested on: M14 melanoma
HOP-62 NSCLC = tested on: HOP-62 NSCLC
SR leukemia = tested on: SR leukemia
NCI-H23 lung = tested on: NCI-H23 lung
HCC-2998 colon = tested on: HCC-2998 colon
KM12 colon = tested on: KM12 colon
IGROV1 ovarian = tested on: IGROV1 ovarian
A549 NSCLC = tested on: A549 NSCLC
SF-539 CNS = tested on: SF-539 CNS
RXF 393 renal = tested on: RXF 393 renal
HS 578T breast = tested on: HS 578T breast
786-0 renal = tested on: 786-0 renal
SN12C renal = tested on: SN12C renal
OVCAR-3 ovarian = tested on: OVCAR-3 ovarian
NCI/ADR-RES ovarian = tested on: NCI/ADR-RES ovarian
UO-31 renal = tested on: UO-31 renal
NCI-H460 lung = tested on: NCI-H460 lung
MOLT-4 leukemia = tested on: MOLT-4 leukemia
K-562 leukemia = tested on: K-562 leukemia
HCT-116 colon = tested on: HCT-116 colon
MDA-N = tested on: MDA-N
UACC-257 melanoma = tested on: UACC-257 melanoma
NCI-H226 lung = tested on: NCI-H226 lung
EKVX NSCLC = tested on: EKVX NSCLC
A498 renal = tested on: A498 renal
CAKI-1 renal = tested on: CAKI-1 renal
HOP-92 NSCLC = tested on: HOP-92 NSCLC
NCI-H522 lung = tested on: NCI-H522 lung
SK-MEL-2 melanoma = tested on: SK-MEL-2 melanoma
T-47D breast = tested on: T-47D breast
CCRF-CEM leukemia = tested on: CCRF-CEM leukemia
OVCAR-4 ovarian = tested on: OVCAR-4 ovarian
SW-620 colon = tested on: SW-620 colon
TK-10 renal = tested on: TK-10 renal
MCF7 breast = tested on: MCF7 breast
SK-OV-3 ovarian = tested on: SK-OV-3 ovarian
BT-549 breast = tested on: BT-549 breast
SNB-19 CNS = tested on: SNB-19 CNS
SNB-75 CNS = tested on: SNB-75 CNS
MDA-MB-435 = tested on: MDA-MB-435
DU-145 prostate = tested on: DU-145 prostate
SF-268 CNS = tested on: SF-268 CNS
HL-60(TB) leukemia = tested on: HL-60(TB) leukemia
U251 CNS = tested on: U251 CNS
MDA-MB-231 breast = tested on: MDA-MB-231 breast
PC-3 prostate = tested on: PC-3 prostate
UACC-62 melanoma = tested on: UACC-62 melanoma
RPMI-8226 leukemia = tested on: RPMI-8226 leukemia
SK-MEL-5 melanoma = tested on: SK-MEL-5 melanoma

Cc1cc2[nH]c(Cl)c(/C=C3\C(=O)Nc4ccccc43)c2cc1O
TGI (COLO 205 colon): 30.1 µM
TGI (MALME-3M melanoma): 16.3 µM
TGI (ACHN renal): 21.6 µM
TGI (OVCAR-5 ovarian): 20.1 µM
TGI (OVCAR-8 ovarian): 25.8 µM
TGI (HT29 colon): 19.5 µM
TGI (SF-295 CNS): 11.3 µM
TGI (LOX IMVI melanoma): 40 µM
TGI (HCT-15 colon): 23.3 µM
TGI (SK-MEL-28 melanoma): 24.2 µM
TGI (M14 melanoma): 17 µM
TGI (HOP-62 NSCLC): 25.9 µM
TGI (SR leukemia): 4.17 µM
TGI (NCI-H23 lung): 10.5 µM
TGI (HCC-2998 colon): 16 µM
TGI (KM12 colon): 17.1 µM
TGI (IGROV1 ovarian): 10.9 µM
TGI (A549 NSCLC): 21.6 µM
TGI (SF-539 CNS): 4.6 µM
TGI (RXF 393 renal): 9.66 µM
TGI (HS 578T breast): > 100 µM
TGI (786-0 renal): > 37.8 µM
TGI (SN12C renal): 12.2 µM
TGI (OVCAR-3 ovarian): 26.7 µM
TGI (NCI/ADR-RES ovarian): > 48.9 µM
TGI (UO-31 renal): 17.8 µM
TGI (NCI-H460 lung): 15 µM
TGI (MOLT-4 leukemia): 32.9 µM
TGI (K-562 leukemia): 18.8 µM
TGI (HCT-116 colon): > 36.7 µM
TGI (MDA-N): 1.97 µM
TGI (UACC-257 melanoma): 23.6 µM
TGI (NCI-H226 lung): 4.31 µM
TGI (EKVX NSCLC): 18 µM
TGI (A498 renal): 16.1 µM
TGI (CAKI-1 renal): 19.7 µM
TGI (HOP-92 NSCLC): 22.8 µM
TGI (NCI-H522 lung): 4.66 µM
TGI (SK-MEL-2 melanoma): 12.9 µM
TGI (T-47D breast): > 56.9 µM
TGI (CCRF-CEM leukemia): 9.32 µM
TGI (OVCAR-4 ovarian): 25.9 µM
TGI (SW-620 colon): 30.7 µM
TGI (TK-10 renal): 23.5 µM
TGI (MCF7 breast): 16.5 µM
TGI (SK-OV-3 ovarian): 19 µM
TGI (BT-549 breast): 25 µM
TGI (SNB-19 CNS): 17.2 µM
TGI (SNB-75 CNS): 16.5 µM
TGI (MDA-MB-435): 1.18 µM
TGI (DU-145 prostate): 12.9 µM
TGI (SF-268 CNS): 18.2 µM
TGI (HL-60(TB) leukemia): 6.16 µM
TGI (U251 CNS): 14.4 µM
TGI (MDA-MB-231 breast): 15.9 µM
TGI (PC-3 prostate): 12.8 µM
TGI (UACC-62 melanoma): 9.08 µM
TGI (RPMI-8226 leukemia): 9.95 µM
TGI (SK-MEL-5 melanoma): 12.3 µM

O=C(O)c1cc(C(=O)O)nc(C(=O)O)c1
TGI (COLO 205 colon): > 100 µM
TGI (MALME-3M melanoma): > 100 µM
TGI (ACHN renal): > 100 µM
TGI (OVCAR-5 ovarian): > 100 µM
TGI (OVCAR-8 ovarian): > 100 µM
TGI (HT29 colon): > 100 µM
TGI (SF-295 CNS): > 100 µM
TGI (LOX IMVI melanoma): > 100 µM
TGI (HCT-15 colon): > 100 µM
TGI (SK-MEL-28 melanoma): > 100 µM
TGI (M14 melanoma): > 100 µM
TGI (HOP-62 NSCLC): > 100 µM
TGI (SR leukemia): > 100 µM
TGI (NCI-H23 lung): > 100 µM
TGI (HCC-2998 colon): > 100 µM
TGI (KM12 colon): > 100 µM
TGI (IGROV1 ovarian): > 100 µM
TGI (A549 NSCLC): > 100 µM
TGI (SF-539 CNS): > 100 µM
TGI (RXF 393 renal): > 100 µM
TGI (HS 578T breast): > 100 µM
TGI (786-0 renal): > 100 µM
TGI (SN12C renal): > 100 µM
TGI (OVCAR-3 ovarian): > 100 µM
TGI (NCI/ADR-RES ovarian): > 100 µM
TGI (UO-31 renal): > 100 µM
TGI (NCI-H460 lung): > 100 µM
TGI (MOLT-4 leukemia): > 100 µM
TGI (K-562 leukemia): > 100 µM
TGI (HCT-116 colon): > 100 µM
TGI (MDA-N): > 100 µM
TGI (UACC-257 melanoma): > 100 µM
TGI (NCI-H226 lung): > 100 µM
TGI (EKVX NSCLC): > 100 µM
TGI (A498 renal): > 100 µM
TGI (CAKI-1 renal): > 100 µM
TGI (HOP-92 NSCLC): > 100 µM
TGI (NCI-H522 lung): > 100 µM
TGI (SK-MEL-2 melanoma): > 100 µM
TGI (T-47D breast): > 100 µM
TGI (CCRF-CEM leukemia): > 100 µM
TGI (OVCAR-4 ovarian): > 100 µM
TGI (SW-620 colon): > 100 µM
TGI (TK-10 renal): > 100 µM
TGI (MCF7 breast): > 100 µM
TGI (SK-OV-3 ovarian): > 100 µM
TGI (BT-549 breast): > 100 µM
TGI (SNB-19 CNS): > 100 µM
TGI (SNB-75 CNS): > 100 µM
TGI (MDA-MB-435): > 100 µM
TGI (DU-145 prostate): > 100 µM
TGI (SF-268 CNS): > 100 µM
TGI (HL-60(TB) leukemia): > 100 µM
TGI (U251 CNS): > 100 µM
TGI (MDA-MB-231 breast): > 100 µM
TGI (PC-3 prostate): > 100 µM
TGI (UACC-62 melanoma): > 100 µM
TGI (RPMI-8226 leukemia): > 100 µM
TGI (SK-MEL-5 melanoma): > 100 µM

COc1ccc(SCc2cc(OC)c(OC)c(OC)c2)cc1OC
TGI (COLO 205 colon): > 100 µM
TGI (MALME-3M melanoma): > 100 µM
TGI (ACHN renal): > 100 µM
TGI (OVCAR-5 ovarian): > 100 µM
TGI (OVCAR-8 ovarian): > 100 µM
TGI (HT29 colon): > 100 µM
TGI (SF-295 CNS): > 100 µM
TGI (LOX IMVI melanoma): > 100 µM
TGI (HCT-15 colon): > 100 µM
TGI (SK-MEL-28 melanoma): > 100 µM
TGI (M14 melanoma): > 100 µM
TGI (HOP-62 NSCLC): > 100 µM
TGI (SR leukemia): > 100 µM
TGI (NCI-H23 lung): > 100 µM
TGI (HCC-2998 colon): > 100 µM
TGI (KM12 colon): > 100 µM
TGI (IGROV1 ovarian): > 100 µM
TGI (A549 NSCLC): > 100 µM
TGI (SF-539 CNS): > 100 µM
TGI (RXF 393 renal): > 100 µM
TGI (HS 578T breast): > 100 µM
TGI (786-0 renal): > 100 µM
TGI (SN12C renal): > 100 µM
TGI (OVCAR-3 ovarian): > 100 µM
TGI (NCI/ADR-RES ovarian): > 100 µM
TGI (UO-31 renal): > 100 µM
TGI (NCI-H460 lung): > 100 µM
TGI (MOLT-4 leukemia): > 100 µM
TGI (K-562 leukemia): > 100 µM
TGI (HCT-116 colon): > 100 µM
TGI (MDA-N): > 100 µM
TGI (UACC-257 melanoma): > 100 µM
TGI (NCI-H226 lung): > 100 µM
TGI (EKVX NSCLC): > 100 µM
TGI (A498 renal): > 86.4 µM
TGI (CAKI-1 renal): > 100 µM
TGI (HOP-92 NSCLC): 83.3 µM
TGI (NCI-H522 lung): > 100 µM
TGI (SK-MEL-2 melanoma): > 69.1 µM
TGI (T-47D breast): > 31.6 µM
TGI (CCRF-CEM leukemia): > 100 µM
TGI (OVCAR-4 ovarian): > 100 µM
TGI (SW-620 colon): > 100 µM
TGI (TK-10 renal): > 100 µM
TGI (MCF7 breast): > 100 µM
TGI (SK-OV-3 ovarian): > 90.1 µM
TGI (BT-549 breast): > 100 µM
TGI (SNB-19 CNS): > 100 µM
TGI (SNB-75 CNS): > 70.5 µM
TGI (MDA-MB-435): 63.1 µM
TGI (DU-145 prostate): > 100 µM
TGI (SF-268 CNS): > 100 µM
TGI (HL-60(TB) leukemia): > 100 µM
TGI (U251 CNS): > 100 µM
TGI (MDA-MB-231 breast): > 100 µM
TGI (PC-3 prostate): > 100 µM
TGI (UACC-62 melanoma): > 100 µM
TGI (RPMI-8226 leukemia): > 100 µM
TGI (SK-MEL-5 melanoma): 34.7 µM
